Tested on: B cells in human whole blood
Assay: B-cell activation in human whole blood
Format: cell-based
Conditions: anti-IgD stimulation, 16 h, read-out: IC50, BCR-dependent (anti-IgD) activation of B cells
Experimental: The whole blood assay was performed at N. N. Blokhin National Medical Research Center of Oncology (NMRCO), Russia and approved by NMRCO ethics committee. Informed consent was obtained from all subjects. Red blood cells were lysed by incubation with NH4Cl buffer (0.8% NH4Cl and 0.1% EDTA in distilled water) for 5 min at 37 °C and were precipitated by centrifugation (1500 rpm). The precipitates were resuspended in RPMI-1640 with 10% human serum and 2 mM L-glutamine, after that the cells were again precipitated by analogous centrifugation and resuspended in RPMI-1640. […] Blood was then stained directly with PE-conjugated anti-CD69 (dilution 1:10) and APC-conjugated anti-CD19 (dilution 1:20) antibodies for 20 min at 4 °C. After that cells were precipitated by centrifugation (1500 rpm, 4 °C) and washed twice with phosphate-buffered saline (PBS). The cells were resuspended in PBS containing 1% BSA and subjected to flow cytometry on BD FACS Canto II (BD Biosciences, USA). The number of active cells was estimated as a ratio of CD69-positive cells bearing a marker of CD19 cells, or as a mean fluorescence intensity (MFI) of CD69 + cells after gating on the CD19-positive cells. For dose–response curve see Fig. S2.

`COc1cc(Nc2ncnc(Nc3cc4c(cn3)NC(=O)C(C)(C)O4)n2)cc(OC)c1OC` [MT-SYK-03] was tested. Which IC50 did it give?
The IC50 was 550 nM.
